Experimental data as given in US20230339900A1, “CASEIN KINASE 1 DELTA MODULATORS” (Janssen Pharmaceutica NV, priority 2020, published 2023).
Read-outs that look alike come from different tables or passages of the source.

Experiments:
circadian rhythms [1] = conditions: cellular reporter assays; cited from earlier work
[2] = conditioned place preference with cocaine and alcohol reinstatement; cited from earlier work
circadian rhythms [3] = conditions: in vivo locomotor activity of a variety of species; cited from earlier work
[4] = ob/ob and diet-induced obese mouse, daily administration; cited from earlier work
[5] = target: human recombinant GST cleaved CSNK1D (Homo sapiens (Human), UniProt P48730); assay: Purified enzyme assay (ADP-Glo Kinase Assay); type: biochemical; conditions: 2 nM CSNK1D, peptide substrate 150 μM, ATP 20 μM, 45 minutes room temperature
Chain of human recombinant GST cleaved CSNK1D (P48730 whole entry): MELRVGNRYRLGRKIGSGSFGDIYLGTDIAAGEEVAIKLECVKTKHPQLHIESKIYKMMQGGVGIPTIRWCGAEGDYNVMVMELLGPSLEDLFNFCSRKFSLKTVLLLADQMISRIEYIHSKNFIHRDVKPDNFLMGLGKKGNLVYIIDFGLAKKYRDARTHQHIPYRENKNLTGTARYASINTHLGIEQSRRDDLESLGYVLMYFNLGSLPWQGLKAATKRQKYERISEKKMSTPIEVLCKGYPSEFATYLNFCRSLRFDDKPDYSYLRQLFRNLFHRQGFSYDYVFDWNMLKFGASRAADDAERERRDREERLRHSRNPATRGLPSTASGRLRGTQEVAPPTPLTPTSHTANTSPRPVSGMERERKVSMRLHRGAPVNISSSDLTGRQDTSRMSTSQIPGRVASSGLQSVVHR

[6] = target: human CSNK1D tagged with nanoluciferase (Homo sapiens (Human), UniProt P48730); assay: Whole Cell nBRET CSNK1D Binding Assay; conditions: living CHO cells stably expressing human CSNK1D-nanoluciferase; NanoBret tracer 130 nM; 2 hours 37° C.; read-out: CSNK1D BRET IC50
Chain of human CSNK1D tagged with nanoluciferase (P48730 whole entry, the tested form may be a part): as the sequence (P48730 whole entry) above
Outline: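 IC50 values come from milliBRET ratios ((E630/E450)*1000) fitted against log compound concentration. Tracer displacement was run in living CHO cells stably expressing NanoLuc-fused CSNK1D, with dosed compounds and 130 nM tracer incubated 2 h at 37 °C in serum-free OptiMEM before substrate addition and donor/acceptor reading.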

Row | Structure (SMILES) | AC50 [5] [µM] | IC50 [6] [µM] | further results
1 | Nc1nccc(-c2c(-c3ccc(F)cc3)ncn2C2CCCCC2)n1 [PF-670462] |  |  | effect on circadian rhythms (circadian rhythms [1]): significantly lengthened circadian rhythms; efficacy in addiction/substance abuse models [2]: have shown efficacy; effect on circadian rhythms (circadian rhythms [3]): significantly lengthened circadian rhythms
2 | Nc1nccc(-c2c(-c3ccc(F)cc3)ncn2C2CCN(Cc3ccon3)CC2)n1 [PF-5006739] |  |  | effect on circadian rhythms (circadian rhythms [1]): significantly lengthened circadian rhythms; effect on glucose tolerance [4]: improve glucose tolerance; effect on circadian rhythms (circadian rhythms [3]): significantly lengthened circadian rhythms
3 | Cn1cc(-c2ccnc3[nH]c(C4(O)COC4)cc23)c(-c2ccc(F)cn2)n1 [Example 94, 3-(4-(3-(5-Fluoropyridin-2-yl)-1-methyl-1H-pyrazol-4-yl)-1H-pyrrolo[2,3-b]pyridin-2-yl)oxetan-3-ol] | 0.01 | 0.187 | 
4 | COc1cc(OC)c2c(-c3cn(C)nc3-c3ccc(F)cn3)ccnc2c1 [Example 151, 4-[3-(5-Fluoro-2-pyridyl)-1-methyl-pyrazol-4-yl]-5,7-dimethoxy-quinoline] | 0.038 | 0.453 | 
5 | Cn1cc(-c2ccnc3[nH]ccc23)c(-c2ccnnc2)n1 [Example 49, 4-(1-Methyl-3-pyridazin-4-yl-pyrazol-4-yl)-1H-pyrrolo[2,3-b]pyridine] | 0.451 | > 10 | 
6 | Cn1cc(-c2ccnc3cc(OC(F)(F)F)ccc23)c(-c2ccc(F)cn2)n1 [Example 109, 4-[3-(5-Fluoro-2-pyridyl)-1-methyl-pyrazol-4-yl]-7-(trifluoromethoxy)quinoline] | 0.041 | 0.468 | 
7 | Cc1cnc(-c2nn(C)cc2-c2ccnc3[nH]ccc23)cn1 [Example 47, 4-[1-Methyl-3-(5-methylpyrazin-2-yl)pyrazol-4-yl]-1H-pyrrolo[2,3-b]pyridine] | 0.346 | > 10 | 
8 | Cn1cc(-c2ccnc3[nH]ccc23)c(-c2ccc(OC(F)F)nc2)n1 [Example 23, 4-[3-[6-(Difluoromethoxy)-3-pyridyl]-1-methyl-pyrazol-4-yl]-1H-pyrrolo[2,3-b]pyridine] | 0.551 | > 10 | 
9 | Cn1cc(-c2ccnc3[nH]ccc23)c(-c2cccnc2)n1 [Example 53, 4-[1-Methyl-3-(3-pyridyl)pyrazol-4-yl]-1H-pyrrolo[2,3-b]pyridine] | 0.068 | 0.359 | 
10 | Cn1cc(-c2ccnc3[nH]c(C(F)(F)F)cc23)c(-c2ccc(F)cn2)n1 [Example 85, 4-(3-(5-Fluoropyridin-2-yl)-1-methyl-1H-pyrazol-4-yl)-2-(trifluoromethyl)-1H-pyrrolo[2,3-b]pyridine] | 0.022 | 0.255 | 
11 | Cn1cc(-c2ccnc3[nH]ccc23)c(-c2cscn2)n1 [Example 13, 4-(1-Methyl-4-(1H-pyrrolo[2,3-b]pyridin-4-yl)-1H-pyrazol-3-yl)thiazole] | 0.028 | 0.626 | 
12 | Cn1cc(-c2ccnc3[nH]cc(CC#N)c23)c(-c2ccc(F)cn2)n1 [Example 120, 2-[4-[3-(5-Fluoro-2-pyridyl)-1-methyl-pyrazol-4-yl]-1H-pyrrolo[2,3-b]pyridin-3-yl]acetonitrile] | 0.031 | 8.71 | 
13 | Cn1cc(-c2ccnc3[nH]ccc23)c(-c2cc(F)ccn2)n1 [Example 27, 4-[3-(4-Fluoro-2-pyridyl)-1-methyl-pyrazol-4-yl]-1H-pyrrolo[2,3-b]pyridine] | 0.004 | 0.178 | 
14 | CCn1ncc2cc(-c3cn(C)nc3-c3ccc(F)cn3)cnc21 [Example 121, 1-Ethyl-5-[3-(5-fluoro-2-pyridyl)-1-methyl-pyrazol-4-yl]pyrazolo[3,4-b]pyridine] | 0.043 | 1.6 | 
15 | Cc1c(-c2ccnc3[nH]ccc23)c(-c2ccc(F)cn2)nn1C [Example 51, 4-(3-(5-Fluoropyridin-2-yl)-1,5-dimethyl-1H-pyrazol-4-yl)-1H-pyrrolo[2,3-b]pyridine] | 0.005 | 0.028 | 
16 | Cn1cc(-c2ccnc3c2ccn3C)c(-c2ccc(F)cn2)n1 [Example 144, 4-[3-(5-Fluoro-2-pyridyl)-1-methyl-pyrazol-4-yl]-1-methyl-pyrrolo[2,3-b]pyridine] | 0.077 | 1.72 | 

Row | Structure (SMILES) | AC50 [5] [µM] | IC50 [6] [µM] | further results
17 | Cc1nc(-c2cn(C)nc2-c2ccc(F)cn2)c2cn[nH]c2n1 [Example 124, 4-[3-(5-Fluoro-2-pyridyl)-1-methyl-pyrazol-4-yl]-6-methyl-1H-pyrazolo[3,4-d]pyrimidine] | 0.052 | 1.94 | 
18 | Cn1cc(-c2ccnc3cc(F)cnc23)c(-c2ccc(F)cn2)n1 [Example 152, 3-Fluoro-8-[3-(5-fluoro-2-pyridyl)-1-methyl-pyrazol-4-yl]-1,5-naphthyridine] | 0.073 | 0.578 | 
19 | Cn1cc(-c2ccnc3[nH]ccc23)c(-c2ccncn2)n1 [Example 44, 4-(1-Methyl-3-pyrimidin-4-yl-pyrazol-4-yl)-1H-pyrrolo[2,3-b]pyridine] | 0.054 | 0.469 | 
20 | Cn1cc(-c2ccnc3[nH]ncc23)c(-c2ccc(C(F)F)cn2)n1 [Example 33, 4-(3-(5-(Difluoromethyl)pyridin-2-yl)-1-methyl-1H-pyrazol-4-yl)-1H-pyrazolo[3,4-b]pyridine] | 0.317 | 17.8 | 
21 | Cn1cc(-c2ccnc3[nH]c(C4(O)CCOC4)cc23)c(-c2ccc(F)cn2)n1 (racemic) [Example 96, (R/S)-3-(4-(3-(5-Fluoropyridin-2-yl)-1-methyl-1H-pyrazol-4-yl)-1H-pyrrolo[2,3-b]pyridin-2-yl)tetrahydrofuran-3-ol] | 0.004 | 0.148 | 
22 | Cn1cc(-c2ccnc3[nH]ccc23)c(-c2nccn2C)n1 [Example 11, 4-(1-Methyl-3-(1-methyl-1H-imidazol-2-yl)-1H-pyrazol-4-yl)-1H-pyrrolo[2,3-b]pyridine] | 0.111 | 4.36 | 
23 | Cn1cc(-c2ccnc3[nH]ccc23)c(-c2cnco2)n1 [Example 6, 5-(1-Methyl-4-(1H-pyrrolo[2,3-b]pyridin-4-yl)-1H-pyrazol-3-yl)oxazole] | 0.041 | 1.42 | 
24 | Cn1cc(-c2cc(C(F)F)nc3[nH]ncc23)c(-c2cncc(F)c2)n1 [Example 146, 6-(Difluoromethyl)-4-[3-(5-fluoro-3-pyridyl)-1-methyl-pyrazol-4-yl]-1H-pyrazolo[3,4-b]pyridine] | 0.171 | 6.57 | 
25 | Cc1cc(-c2cn(CC(F)F)nc2-c2ccc(F)cn2)c2cn[nH]c2n1 [Example 69, 4-(1-(2,2-Difluoroethyl)-3-(5-fluoropyridin-2-yl)-1H-pyrazol-4-yl)-6-methyl-1H-pyrazolo[3,4-b]pyridine] | 0.006 | 0.311 | 
26 | Fc1ccc(-c2nn(C3CCOC3)cc2-c2ccnc3[nH]ccc23)nc1 (racemic) [Example 74, (R/S)-4-[3-(5-Fluoro-2-pyridyl)-1-tetrahydrofuran-3-yl-pyrazol-4-yl]-1H-pyrrolo[2,3-b]pyridine] | 0.036 | 0.218 | 
27 | Cn1cc(-c2ccnc3cc[nH]c23)c(-c2ccc(F)cn2)n1 [Example 4, 7-(3-(5-Fluoropyridin-2-yl)-1-methyl-1H-pyrazol-4-yl)-1H-pyrrolo[3,2-b]pyridine] | 0.118 | 2.36 | 
28 | COc1nc(-c2nn(C)cc2-c2cc(C)nc3[nH]ncc23)ccc1F [Example 41, 4-(3-(5-Fluoro-6-methoxypyridin-2-yl)-1-methyl-1H-pyrazol-4-yl)-6-methyl-1H-pyrazolo[3,4-b]pyridine] | 0.107 | 5 | 
29 | Cc1csc2c(-c3cn(C)nc3-c3ccc(F)cn3)ccnc12 [Example 132, 7-[3-(5-Fluoro-2-pyridyl)-1-methyl-pyrazol-4-yl]-3-methyl-thieno[3,2-b]pyridine] | 0.361 | 5.17 | 
30 | Cn1cc(-c2ccnc3c2CCCN3)c(-c2ccc(F)cn2)n1 [Example 114, 5-[3-(5-Fluoro-2-pyridyl)-1-methyl-pyrazol-4-yl]-1,2,3,4-tetrahydro-1,8-naphthyridine] | 0.166 | 4.23 | 
31 | COc1ccc2nccc(-c3cn(C)nc3-c3ccc(F)cn3)c2n1 [Example 103, 8-[3-(5-Fluoro-2-pyridyl)-1-methyl-pyrazol-4-yl]-2-methoxy-1,5-naphthyridine] | 0.01 | 0.147 | 
